In patent US20050239751A1, “Heterocyclic anti-viral compounds comprising metabolizable moieties and their uses” (Rigel Pharmaceuticals, Inc., priority 2004, published 2005):
Read-outs that look alike come from different tables or passages of the source.

Test system: HCV replicon in 5-2 Luc replicon-comprising cells
Assay: HCV replicon assay (luciferase; HEPC_REPLICON-LUC)
Format: cell-based, Hepatitis C virus
Settings: read-out: Replicon (IC50)
Source text: In one embodiment, the inhibitory activity of the metabolically active agent of the prodrug can be confirmed in a replicon assay that assesses the ability of a test compound to block or inhibit HCV replication in replicon cells. One example of a suitable replicon assay is the liver cell-line Huh 7-based replicon assay described in Lohmann et al., 1999, Science 285:110-113. A specific example of this replicon assay which utilizes luciferase translation is provided in the Examples Section. In one embodiment of this assay, the amount of test prodrug that yields a 50% reduction in translation as compared to a control cell (IC50) may be determined.
The inhibitory activity of certain prodrugs of the invention, which may inhibit HCV translation or replication prior to metablism and/or are metabolized into active agents, was confirmed using an HCV replicon assay. The HCV replicon can include such features as the HCV 5′ untranslated region including the HCV IRES, the HCV 3′ untranslated region, selected HCV genes encoding HCV polypeptides, selectable markers, and a reporter gene such as luciferase, GFP, etc. In the assay, actively dividing 5-2 Luc replicon-comprising cells (obtained from Ralf Bartenschlager; see Lohmann et al., 1999, Science 285:110-113) were seeded at a density of between about 5,000 and 7,500 cells/well onto 96 well plates (about 90 µl of cells per well) and incubated at 37° C. and 5% CO2 for 24 hours. Then, the test prodrug (in a volume of about 10 PI) was added to the wells at various concentrations and the cells were incubated for an additional 24-48 hours before luciferase assay. The media was aspirated from each well and Bright-Glo (Promega, Madison, WI) luciferase assay reagents were added to each well according to the manufacturer's instructions. Briefly, the BrightGlo reagent was diluted 1:1 with PBS and 100 µl of diluted reagent was added to each well. After 5 min of incubation at room temperature, luciferin emission was quantified with a luminometer. In this assay, the amount of test prodrug that yielded a 50% reduction in luciferase emission (IC50) was determined. This IC50 value may represent the antiviral activity of the prodrug itself, the activity of prodrug transformed into its active metabolized form, or a combination of the two.
In TABLES 3 through 12, a value of “+” indicates an IC50 of 10 μM or less in the specified assay; a value of “−” indicates an IC50 of greater than 10 μM in the specified assay.

[1] = Tables 3-12, 50% reduction in luciferase emission, 5-2 Luc replicon cells
[2] = Hepatitis C virus, Tables 3-12, 50% reduction in luciferase emission, 5-2 Luc replicon cells

“2,2-dichloro-2-(diethoxyphosphonyl)-N-[3-[3-(2,6-dichlorophenyl)-5-isoxazoyl]phenyl] acetamide [compound 405]” was tested, and the IC50 [1] was no more than 10 µM.

“2,2-dichloro-2-(dihydroxyphosphonyl)-N-[3-[3-(2,6-dichlorophenyl)-5-isoxazoyl]phenyl] acetamide [Cpd. 407]” was tested, and the IC50 [1] was greater than 10 µM.

In the case of “2,2-dichloro-N-[3′-[3′-(2′-chloro-6′-tbutoxycarbonylphenyl)-5′-isoxazoyl]phenyl]-N-[(5-isopropyl-1,3-dioxolene-2-one4-yl)methylene] acetamide [Cpd. 36]”, the IC50 [1] is reported as no more than 10 µM.

“2′,2′-Dichloro-N-[3-[3-(2,6-dichlorophenyl)-5-isoxazolyl]-4-(pyridyl)]-N-[2-(4-fluorobenzoyl)ethyl] Acetamide [126a]” showed an IC50 (Table 15) of no more than 10 µM.

In the case of “2′,2′-Dichloro-N-[3-[3-(2,6-dichlorophenyl)-5-isoxazolyl]phenyl]-N-[2-(4-fluorobenzoyl)ethyl] Acetamide [100a]”, the IC50 (Table 15) is reported as no more than 10 µM.

“2′,2′-Dichloro-N-[3-[3-(2,6-dichlorophenyl)-5-isoxazolyl]phenyl]-N-[2-(4-methoxybenzoyl)ethyl] Acetamide [Cpd. 103a]” gave an IC50 (Table 15) of no more than 10 µM.

For “2′,2′-Dichloro-N-[3-[3-(2,6-dichlorophenyl)-5-isoxazolyl]phenyl]-N-[2-(benzoyl)ethyl] Acetamide [Cpd. 102a]”, the IC50 (Table 15) was no more than 10 µM.

In the case of “2′,2′-Dichloro-N-[3-[3-(2-chloro-6-hydroxycarbonylphenyl)-5-isoxazolyl]phenyl]-N-[2-(4-fluorobenzoyl)ethyl] Acetamide [Cpd. 129a]”, the IC50 (Table 15) is reported as no more than 10 µM.

Work on “2′,2′-Dichloro-N-[3-[3-(2-chloro-6-methoxycarbonylphenyl)-5-isoxazolyl]phenyl]-N-[2-(4-fluorobenzoyl)ethyl] Acetamide [Cpd. 133a]” yielded an IC50 (Table 15) of no more than 10 µM.

“2′,2′-Dichloro-N-[3-[3-(2-chloro-6-methoxyphenyl)-5-isoxazolyl]phenyl]-N-[2-(4-fluorobenzoyl)ethyl] Acetamide [Cpd. 113a]” gave an IC50 (Table 15) of no more than 10 µM.

With “2′,2′-Dichloro-N-[3-[3-(2-chloro-6-tbutoxycarbonylphenyl)-5-isoxazolyl]phenyl]N-[2-(4-fluorobenzoyl)ethyl] Acetamide [Cpd. 128a]” the IC50 (Table 15) was no more than 10 µM.

With “2′,2′-Dichloro-N-[3-[3-(2-cyclopropyl-6-trifluoromethylphenyl)-5-isoxazolyl]phenyl]N-[2-(4-fluorobenzoyl)ethyl] Acetamide [Cpd. 114a]” the IC50 (Table 15) was no more than 10 µM.

“2′,2′-Dichloro-N-[3-[3-[2-chloro-6-(N′-acetyl-4piperdinyloxy)phenyl]-5-isoxazolyl]phenyl]-N-[2-(4-fluorobenzoyl)ethyl] Acetamide [Cpd. 127a]” showed an IC50 (Table 15) of no more than 10 µM.

With “2′,2′-dichloro-2′-(benzyloxycarbonyl)-N-[3-[3-(2,6-dichlorophenyl)-5-isoxazoyl]phenyl] acetamide [Cpd. 17]” the IC50 [1] was no more than 10 µM.

In the case of “2′,2′-dichloro-2′-(diethoxyphosphonyl)-N-[3-[3-(2-fluoro-6-trifluoromethylphenyl)-5-isoxazoyl]phenyl] acetamide [Cpd. 6]”, the IC50 [1] is reported as no more than 10 µM.

For “2′,2′-dichloro-2′-(diisopropoxyphosphonyl)-N-[3-[3-(2,6-dichlorophenyl)-5-isoxazoyl]phenyl] acetamide [Cpd. 4]”, the IC50 [1] was no more than 10 µM.

Work on “2′,2′-dichloro-2′-[(1R, 2S, 5Rkmenthyloxycarbonyl]-N-[3-[3-(2,6-dichlorophenyl)-5-isoxazoyl]phenyl] acetamide [Cpd. 11]” yielded an IC50 [1] of no more than 10 µM.

Molecule “2′-(diethoxyphosphonyl)-2′,2′-difluoro-N-[3-[3-(2,6-dichlorophenyl)-5-isoxazoyl]phenyl] acetamide [Cpd. 3]” has an IC50 [1] greater than 10 µM.

“2′-chloro-2′-(diethoxyphosphonyl)-2-fluoro-N-[3-[3-(2,6-dichlorophenyl)-5-isoxazoyl]phenyl] acetamide [Cpd. 2]” showed an IC50 [1] greater than 10 µM.

In the case of “2′-chloro-2′-(diethoxyphosphonyl)-N-[3-[3-(2,6-dichlorophenyl)-5-isoxazoyl]phenyl] acetamide [Cpd. 1]”, the IC50 [1] is reported as greater than 10 µM.

`O=C(CCCN(C(=O)C(Cl)Cl)c1cccc(-c2cc(-c3c(Cl)cccc3Cl)no2)c1)c1ccccc1` [107a] showed an IC50 (Table 15) of no more than 10 µM.

`CCOP(=O)(OCC)C(Cl)(Cl)C(=O)Nc1cccc(-c2cc(-c3ccccc3C(F)(F)F)no2)c1` [Cpd. 5] was tested, and the IC50 [1] was no more than 10 µM.

`CCOC(=O)[C@H](C)OC(=O)C(Cl)(Cl)C(=O)Nc1cccc(-c2cc(-c3c(Cl)cccc3Cl)no2)c1` [Cpd. 8, 2′,2′-dichloro-2′-(1S-ethoxycarbonyl-1-methylmethyleneoxycarbonyl)-N-[3-[3-(2,6-dichlorophenyl)-5-isoxazoyl]phenyl] acetamide] gave an IC50 [2] of no more than 10 µM.

`CC1(C)C2CCC1(C)C(OC(=O)C(Cl)(Cl)C(=O)Nc1cccc(-c3cc(-c4c(Cl)cccc4Cl)no3)c1)C2` [Cpd. 9, 2′,2′-dichloro-2′-[(1S)-endo-borneyloxycarbonyl]-N-[3-[3-(2,6-dichlorophenyl)-5-isoxazoyl]phenyl] acetamide] was tested, and the IC50 [2] was no more than 10 µM.

`CC(=O)C(Cl)(Cl)C(=O)Nc1cccc(-c2cc(-c3c(Cl)cccc3Cl)no2)c1` [Cpd. 10] gave an IC50 [2] greater than 10 µM.

For `CCC(C)OC(=O)C(Cl)(Cl)C(=O)Nc1cccc(-c2cc(-c3c(Cl)cccc3Cl)no2)c1` (stereo not drawn) [Cpd. 12, 2′,2′-dichloro-2′-(sec-butoxycarbonyl)-N-[3-[3-(2,6-dichlorophenyl)-5-isoxazoyl]phenyl] acetamide], the IC50 [2] was no more than 10 µM.

`O=C(Nc1cccc(-c2cc(-c3c(Cl)cccc3Cl)no2)c1)C(Cl)(Cl)C(=O)OC1CCCCC1` [Cpd. 13, 2′,2′-dichloro-2′-(cyclohexyloxycarbony)-N-[3-[3-(2,6-dichlorophenyl)-5-isoxazoyl]phenyl] acetamide] gave an IC50 [2] of no more than 10 µM.

`CC(C)(C)COC(=O)C(Cl)(Cl)C(=O)Nc1cccc(-c2cc(-c3c(Cl)cccc3Cl)no2)c1` [Cpd. 14] was tested, and the IC50 [2] was no more than 10 µM.

`CC(C)(C)OC(=O)C(Cl)(Cl)C(=O)Nc1cccc(-c2cc(-c3c(Cl)cccc3Cl)no2)c1` [Cpd. 15] showed an IC50 [2] of no more than 10 µM.

`CC(C)OC(=O)C(Cl)(Cl)C(=O)Nc1cccc(-c2cc(-c3c(Cl)cccc3Cl)no2)c1` [Cpd. 16, 2′,2′-dichloro-2′-(isopropoxycarbonyl)-N-[3-[3-(2,6-dichlorophenyl)-5-isoxazoyl]phenyl] acetamide] showed an IC50 [2] of no more than 10 µM.

Molecule `COC(=O)C(Cl)(Cl)C(=O)Nc1cccc(-c2cc(-c3c(Cl)cccc3Cl)no2)c1` [Cpd. 18] has an IC50 [2] of no more than 10 µM.

With `COC(=O)C(Cl)(Cl)C(=O)Nc1cccc(-c2cc(-c3c(C4CC4)cccc3C(F)(F)F)no2)c1` [Cpd. 26, 2′,2′-dichloro-2′-(methoxycarbonyl)-N-[3-[3-(2-cyclopropyl-6-trifluoromethylphenyl]5-isoxazoyl]phenyl] acetamide] the IC50 [2] was no more than 10 µM.

`COC(=O)C(Cl)(Cl)C(=O)Nc1cccc(-c2cc(-c3c(Cl)cccc3OC)no2)c1` [Cpd. 27, 2′,2′-dichloro-2′-(methoxycarbonyl)-N-[3-[3-(2-chloro-6-methoxyphenyl]5-isoxazoyl]phenyl] acetamide] gave an IC50 [2] of no more than 10 µM.

With `COC(=O)C(Cl)(Cl)C(=O)Nc1cccc(-c2cc(-c3c(Cl)ccnc3N(C)C)no2)c1` [Cpd. 28] the IC50 [2] was no more than 10 µM.

`COC(=O)C(Cl)(Cl)C(=O)Nc1cccc(-c2cc(-c3ccccc3C(F)(F)F)no2)c1` [Cpd. 29, 2′,2′-dichloro-2′-(methoxycarbonyl)-N-[3-[3-(2-trifluoromethylphenyl)-5-isoxazoyl]phenyl] acetamide] showed an IC50 [2] of no more than 10 µM.

In the case of `COC(=O)C(Cl)(Cl)C(=O)Nc1cccc(-c2cc(-c3c(F)cccc3C(F)(F)F)no2)c1` [Cpd. 30, 2′,2′-dichloro-2′-(methoxycarbonyl)-N-[3-[3-(2-fluoro-6-trifluoromethylphenyl)-5-isoxazoyl]phenyl] acetamide], the IC50 [2] is reported as no more than 10 µM.

Work on `COc1cccc(Cl)c1-c1cc(-c2cccc(N(Cc3oc(=O)oc3C)C(=O)C(Cl)Cl)c2)on1` [Cpd. 31, 2,2-dichloro-N-[3′-[3′-(2′-chloro-6′-methoxyphenyl)-5′-isoxazoyl]phenyl]-N-[(5-methyl-1,3-dioxolene-2-one-4-yl)methylene] acetamide] yielded an IC50 [2] of no more than 10 µM.

In the case of `CC(C)c1oc(=O)oc1CN(C(=O)C(Cl)Cl)c1cccc(-c2cc(-c3c(Cl)cccc3Cl)no2)c1` [Cpd. 34, 2,2-dichloro-N-[3′-[3′-(2′,6′-dichlorophenyl)-5′-isoxazoyl]phenyl]-N-[(5-isopropyl-1,3-dioxolene-2-one4-yl)methylene] acetamide], the IC50 [2] is reported as no more than 10 µM.

With `CC(C)c1oc(=O)oc1CN(C(=O)C(Cl)Cl)c1cccc(-c2cc(-c3c(Cl)ccnc3N(C)C)no2)c1` [Cpd. 35] the IC50 [2] was no more than 10 µM.
